Inconclusive results are not listed. Calls of active or inactive are those of the source. How the calls were made is not given here.
target: Tyrosine-protein phosphatase YopH [Yersinia enterocolitica]; experiment: potency against Yersinia YopH phosphatase – biochemical, 10-point dose range, dose response (AID 1261); settings: YopH phosphatase enzymatic assay, IC50, 3 runs

Row | Structure (SMILES) | IC50
1 | Cc1ccc(NC2=C(NCCO)C(=O)c3ccccc3C2=O)cc1 | > 50 µM (inactive)
2 | CCOC(=O)C1=C(C)NC2(O)c3ccccc3C(=O)C12O (stereo not given) | > 50 µM (inactive)
3 | CC1=C(C)C(=O)C(CCCCC#CCCCC#CCO)=C(C)C1=O | > 50 µM (inactive)

same assay, conditions: YopH phosphatase enzymatic assay, IC50, 3 runs; inhibition; at 50 µM; stronger effect = higher value

Row | Structure (SMILES) | inhibition [%]
4 | O=C(c1ccco1)N1CCN(CC(=O)N2CCCc3c2c(=O)oc2ccc(O)cc32)CC1 | -5.68
5 | Cc1nc2ccccc2c(=O)n1NC(=O)c1c(O)c2c(n(CC(C)C)c1=O)CCCC2 | -4.05
6 | COC(=O)Cc1cnc(NC(=O)C2C3CCC(C3)C2C(=O)O)s1 (stereo not given) | -18.2
7 | Cc1ccc(C(c2sc3nc(C)nn3c2O)N2CCOCC2)cc1 (stereo not given) | -10.3
8 | Cc1ccccc1/[N+]([O-])=C/c1ccncc1 | 15.6
9 | O=C(CSc1nnc(-c2ccccc2)o1)n1c2c(c3ccccc31)CCCC2 | -10.9
10 | CC(=O)[C@H]1[C@@H]2C(=O)N(c3cccc(Cl)c3)C(=O)[C@@H]2[C@H]2c3ccccc3C=CN21 | 5.01
11 | O=[N+]([O-])c1ccc(-c2csc3[n+]2CCS3)cc1 | 20.8
12 | O=C(NC(Cc1c[nH]c2ccccc12)c1nnc2n1CCCCC2)c1cccs1 (stereo not given) | 0.82
13 | O=C(OCC1O[C@@H](OC(=O)c2cc(O)c(O)c(O)c2)[C@@H](OC(=O)c2cc(O)c(O)c(O)c2)[C@@H](OC(=O)c2cc(O)c(O)c(O)c2)[C@@H]1OC(=O)c1cc(O)c(O)c(O)c1)c1cc(O)c(O)c(O)c1 (stereo not given in full) | 72.5
14 | Cc1ccc(NC2=C(NCCO)C(=O)c3ccccc3C2=O)cc1 | 7.47
15 | CCOC(=O)COc1cc(=O)n(CC)c2ccccc12 | -3.72
16 | CCOC(=O)C1=C(C)NC2(O)c3ccccc3C(=O)C12O (stereo not given) | 40
17 | O=C(NCc1ccccc1)C1CCCN1S(=O)(=O)c1cccc2cccnc12 (stereo not given) | -2.68
18 | Cc1ccc(NC(=O)c2ccnc(C(C)(C)C)c2)cc1 | -1.22
19 | O=C(O)c1ccccc1SCC(=O)N1c2ccccc2Sc2ccccc21 | -57.4
20 | COc1cc(NCCCCCCCN)c2ncccc2c1 | 56.5
21 | COc1ccc(CCN2C(=O)c3ccncc3C2=O)cc1OC | 0.113
22 | Cc1ccc(NC2=C(N3CCCCC3)C(=O)c3ccccc3C2=O)cc1 | 35.4

Row | Structure (SMILES) | inhibition [%]
23 | CCOC(=O)c1ccc(NS(=O)(=O)c2cc(-c3nnnn3C(C)C)ccc2OC)cc1 | -7.2
24 | Cc1ccc(NC2=C(N3CCOCC3)C(=O)c3ccccc3C2=O)cc1 | 18
25 | O=c1cc(CN2CCN(c3ccccc3F)CC2)c2cc(O)c(-c3ccccc3)cc2o1 | 4.58
26 | CCCNc1nc2c(c(=O)[nH]c(=O)n2C)n1Cc1ccc(F)cc1 | -11.6
27 | CCOC(=O)c1c(C)oc2c1c(C=NCc1ccccn1)c(O)c1ccccc12 | 2.53
28 | CC1=C(C)C(=O)C(CCCCC#CCCCC#CCO)=C(C)C1=O | 0.676
29 | O=C1CC(N(O)c2ccccc2)C(=O)N1Cc1ccccc1 (stereo not given) | -4.47
30 | O=C(CSc1ncn[nH]1)c1ccc2c(c1)OCO2 | -17.6
31 | Nc1c(NCc2ccccc2F)c(=O)[nH]c(=O)n1Cc1ccccc1 | 33.1
32 | CC(=O)Nc1ccc(-c2nnc(SCC(=O)n3c4c(c5ccccc53)CCCC4)n2C)cc1 | -7.8
33 | Cc1oc2ccccc2c1-c1cn2c(n1)SCC2 | -2.41
34 | COC(=O)c1ccc(Cl)c(NC(=O)CN2CCN(Cc3ccccc3)CC2)c1 | -9.15
35 | Cc1ccc(C(=O)N2C(=S)C(c3ccc(F)cc3)=NC23CCN(C)CC3)cc1 | -3.79
36 | CC(=O)NC1=C(N(C)C2CCS(=O)(=O)C2)C(=O)c2ccccc2C1=O (stereo not given) | 9.79
37 | Cc1[nH]n(-c2ccccc2)c(=O)c1C(C[N+](=O)[O-])c1ccc(Cl)cc1 (stereo not given) | -6.86
38 | CCOC(=O)c1nc(C)n(-c2ccc(Cl)cc2)n1 | -5.92
39 | CC(=O)N1C(=O)/C(=C2\SC(=S)N(c3c(C)n(C)n(-c4ccccc4)c3=O)C2=O)c2ccccc21 | 4.95
40 | CC(C)(C)c1cc(OC(=O)c2ccncc2)ccc1O | 30.2

Reference: PubChem BioAssay AID1261 (University of Pittsburgh Molecular Library Screening Center, 2008)
